Activity calls are given as the source filed them.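 How the source made its calls: active means more than 40% inhibition of the growth reporter signal at one or more tested doses; inactive means below 40% inhibition at every dose.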
Each molecule was assayed on S. Typhimurium nmpC-GFP reporter (non-PhoP growth counter-screen), low Mg2+, 4 h (assay: non-PhoP GFP expression and growth suppression – purified and synthesized compounds, set 2, counter-screen for PhoP regulon inhibitor project, dose response (AID 2834)).

| SMILES | IC50 |
| --- | --- |
| COc1ccc(CNC(=S)Nc2ccncc2)cc1 | > 150 µM (inactive) |
| O=c1c2ccccc2[nH]c2ccc(F)cc12 | < 0.15 µM |
| O=C1C2=C(Nc3ccccc3SC2c2ccccc2C(F)(F)F)c2ccccc21 (configuration not stated) | > 150 µM (inactive) |
| COc1c(N2CCN(C(=S)NCc3ccccc3)C(C)C2)c(F)cc2c(=O)c(C(=O)O)cn(C3CC3)c12 (configuration not stated) | < 0.15 µM |
| S=C(NCc1ccc(Cl)cc1)Nc1cccc(Cl)c1 | > 150 µM (inactive) |
| O=C(Nc1ccc(Cl)cc1)N1CCCN(Cc2ccc(F)cc2)C1 | > 150 µM (inactive) |
| Cc1ccc(Nc2cc(C)c3c(O)cccc3n2)cc1C | < 0.15 µM |
| O=C1C2=C(Nc3ccccc3SC2c2ccccc2Br)c2ccccc21 (configuration not stated) | > 150 µM (inactive) |
| O=C1C2=C(Nc3ccccc3SC2c2ccsc2)c2ccccc21 (configuration not stated) | > 150 µM (inactive) |
| O=C(O)c1cn(-c2ccc(F)cc2)c2cc(Cl)c(F)cc2c1=O | < 0.15 µM |
| O=C(Nc1ccc(Cl)cc1)N1CCCN(Cc2ccccc2F)C1 | < 0.15 µM |
| CCCCn1c(NS(=O)(=O)c2ccc(C)cc2)c(S(=O)(=O)c2ccccc2)c2nc3ccccc3nc21 | < 0.15 µM |
| CN(C)CCCN(C(=O)CCc1ccccc1)c1nc2ccc(Cl)cc2s1 | < 0.15 µM |
| COc1cccc(NC(=S)NCc2ccc(Cl)cc2)c1 | > 150 µM (inactive) |
| O=C1C2=C(Nc3ccccc3SC2c2ccco2)c2ccccc21 (configuration not stated) | < 0.15 µM |
| CCn1cc(C(=O)O)c(=O)c2cc(F)c(N3CCN(C(=S)NC(=O)c4ccccc4F)CC3)cc21 | < 0.15 µM |
| COc1ccccc1NC(=O)N1CCCN(Cc2ccccc2F)C1 | > 150 µM (inactive) |
| O=C(Nc1ccccc1)N1CCCN(Cc2ccccc2F)C1 | > 150 µM (inactive) |
| Cc1cccc(NC(=S)NCc2ccc(Cl)cc2)c1 | > 150 µM (inactive) |

| SMILES | IC50 |
| --- | --- |
| S=C(NCc1ccc(Cl)cc1)Nc1ccc(Cl)cc1 | > 150 µM (inactive) |
| O=C(Nc1ccc(Br)cc1)N1CCCN(Cc2ccccc2F)C1 | > 150 µM (inactive) |
| O=C1C2=C(Nc3ccccc3SC2c2ccc(C(F)(F)F)cc2)c2ccccc21 (configuration not stated) | > 150 µM (inactive) |
| COc1ccc(NC(=S)NCc2ccc(Cl)cc2)cc1 | > 150 µM (inactive) |
| CCn1cc(C(=O)O)c(=O)c2cc(F)c(N3CCN(C(=S)NCc4ccccc4)CC3)cc21 | > 150 µM (inactive) |
| CCn1cc(C(=O)O)c(=O)c2cc(F)c(N3CCN(C(=S)NC(=O)c4ccccc4Cl)CC3)cc21 | < 0.15 µM |
| CCCCn1c(NS(=O)(=O)c2ccccc2)c(S(=O)(=O)c2ccc(C)cc2)c2nc3ccccc3nc21 | < 0.15 µM |
| O=S(=O)(Nc1c(S(=O)(=O)c2ccccc2)c2nc3ccccc3nc2n1C1CCCCC1)c1ccccc1 | < 0.15 µM |
| Cc1ccc(CN2CCCN(C(=O)Nc3ccc(Cl)cc3)C2)cc1 | > 150 µM (inactive) |
| C1=C(CCNc2ncnc3c2[nH]c2ccccc23)CCCC1 | < 0.15 µM |
| N#C/C(=C\c1ccc[nH]1)C(=O)NC1CC1 | < 0.15 µM |
| S=C(NCc1ccccc1Cl)Nc1ccncc1 | > 150 µM (inactive) |
| CCn1cc(C(=O)O)c(=O)c2cc(F)c(N3CCN(C(=S)Nc4ccccc4Cl)CC3)cc21 | > 150 µM (inactive) |
| O=C1c2ccccc2C2=Nc3ccccc3SC(c3ccccc3F)C12 (configuration not stated) | < 0.15 µM |
| CCn1cc(C(=O)O)c(=O)c2cc(F)c(N3CCN(C(=S)Nc4ccc(Cl)cc4)CC3)cc21 | 131 µM |
| O=C(Nc1cccnc1)c1cc(Br)c(Br)s1 | < 0.15 µM |
| COc1ccc(NC(=O)c2cc(Br)c(Br)s2)cn1 | < 0.15 µM |
| CN1CCN(C2=Cc3cc(Cl)ccc3Sc3cc(F)ccc32)CC1 | < 0.15 µM |
| O=C(Nc1ccccc1)N1CCCN(Cc2ccc(F)cc2)C1 | > 150 µM (inactive) |

| SMILES | IC50 |
| --- | --- |
| CN1CCc2nc(SCC(=O)Nc3cccc(F)c3)c(C#N)c(-c3cccs3)c2C1 | < 0.15 µM |
| S=C(NCc1ccc(Cl)cc1)Nc1ccc(Br)cc1 | > 150 µM (inactive) |
| CSc1nc2cc(Oc3cccc(Cl)c3Cl)c(Cl)cc2[nH]1 | < 0.15 µM |
| CCn1cc(C(=O)O)c(=O)c2cc(F)c(N3CCN(C(=S)Nc4ccccc4C(F)(F)F)CC3)cc21 | 76.4 µM |
| O=C(Nc1ccccc1Cl)N1CCCN(Cc2ccccc2F)C1 | > 150 µM (inactive) |
| O=[N+]([O-])c1ccc(CNC2CCCc3ccccc32)cc1 (configuration not stated) | < 0.15 µM |
| O=C(NCc1ccccc1)N1CCCN(Cc2ccccc2F)C1 | > 150 µM (inactive) |
| Cc1ccc(NC(=S)NCc2ccc(Cl)cc2)cc1 | > 150 µM (inactive) |
| COc1cccc(C2Sc3ccccc3NC3=C2C(=O)c2ccccc23)c1 (configuration not stated) | > 150 µM (inactive) |
| COc1ccccc1Nc1nc(NCc2ccco2)c2ccccc2n1 | < 0.15 µM |
| CCn1cc(C(=O)O)c(=O)c2cc(F)c(N3CCN(C(=S)NC)CC3)cc21 | > 150 µM (inactive) |
| O=C(Nc1nnc(-c2cccs2)o1)c1cccc(C(F)(F)F)c1 | < 0.15 µM |
| CCn1cc(C(=O)O)c(=O)c2cc(F)c(N3CCN(C(=S)Nc4ccccc4C)CC3)cc21 | > 150 µM (inactive) |
| CCCCCNC(=O)c1cn(CC)c2cc(N3CCN(C)CC3)c(F)cc2c1=O | < 0.15 µM |
| O=C1C2=C(Nc3ccccc3SC2c2ccccc2Cl)c2ccccc21 (configuration not stated) | > 150 µM (inactive) |
| CCOc1ccc(NC(=S)N2CCN(c3cc4c(cc3F)c(=O)c(C(=O)O)cn4CC)CC2)cc1 | > 150 µM (inactive) |
| S=C(NCc1ccc(Cl)cc1)Nc1cccnc1 | > 150 µM (inactive) |
| Fc1ccccc1NC(=S)NCc1ccc(Cl)cc1 | > 150 µM (inactive) |
| O=C1C2=C(Nc3ccccc3SC2c2cccc(Cl)c2)c2ccccc21 (configuration not stated) | > 150 µM (inactive) |

— PubChem BioAssay AID2834 (Southern Research Specialized Biocontainment Screening …, 2010)
